Literature values as cited in patent publication US20080039428A1, “Antiretroviral combination therapy” (Panacos Pharmaceuticals, Inc., priority 2006, published 2008).

Tested on: HIV

C=C(C)[C@@H]1CC[C@]2(C(=O)O)CC[C@]3(C)[C@H](CC[C@@H]4[C@@]5(C)CC[C@H](OC(=O)CC(C)(C)C(=O)O)C(C)(C)[C@@H]5CC[C@]43C)[C@@H]12 [DSB, 3-O-(3′,3′-dimethylsuccinyl)betulinic acid]
inhibition of HIV replication: potent inhibitor of HIV replication
